Each structure is given as a SMILES string.

This test deals with human elastin promoter. The experiment in a line: Transgenic mouse model of photoaging: human elastin promoter/CAT reporter activity after solar simulating radiation. Type of test: in vivo, transgenic mice. As to conditions: topical application to backs about fifteen minutes before 20 MEDs of SSR, three consecutive days; CAT activity 24 hours after third phototreatment, compared with vehicle alone.

Description: These mice express human elastin promoter activity in a tissue-specific and developmentally regulated manner. […] In addition, quantitative data can be obtained after only a single exposure to ultraviolet radiation. […] The transgenic mouse is then exposed to solar radiation and human elastin promoter activity in the mouse is determined.
Approximately fifteen minutes after topical application, the mice are exposed to 20 human minimal erythema doses (MEDs) of solar simulating radiation (SSR). […] This procedure is repeated over three consecutive days.
Mice are then sacrificed and skin harvested for determination of CAT activity 24 hours after the third phototreatment. […]
To measure the expression of the human elastin promoter/CAT reporter gene construct in the skin of transgenic mice and in fibroblast cultures established from these animals, CAT activity is determined. […] The homogenates are centrifuged at 10,000 ×g for 15 minutes at 4° C. and the protein concentration in the supernatant determined by a commercial protein assay kit (Bio-Rad Laboratories, Richmond, Calif.). […] The acetylated and non-acetylated forms of radioactive chloramphenicol are separated by thin-layer chromatography and CAT activity is determined by the radioactivity in the acetylated forms as a percent of the total radioactivity in each sample.

Take `Cn1c(=O)c2c(ncn2C)n(C)c1=O` [caffeine]: the “protection against photoaging and other sun-damage (human elastin promoter activity, CAT activity in skin)” value is “provides protection against photoaging and other sun-damage such as sunburn”.

(Values after US20060029555A1, “Compositions and methods for prevention of photoaging” (priority 2002, published 2006).)
